Where two headings read alike, the source gives them in different places.

Series [1] concerns HL-60 (human promyelocytic) cells. Put plainly: HL-60 cell differentiation of quassinoids, NBT reduction. It counts as cell-based. How it is done: (§1) Induction of differentiation was determined by the ability of treated cells to produce superoxide anions (nitroblue tetrazolium (NBT)-reduction), a functional marker of mature macrophages or granulocytes. Proliferation capacity is equivalent to cell growth and was measured by incorporation of [3H]thymidine into DNA over a period of 18 h, and cytotoxic activity was evaluated by the loss of membrane integrity as shown by trypan blue exclusion. […] Although members of the brusatol and glaucarubolone series were active, when comparing members of both series that varied only in the positioning of the epoxymethano bridge, great differences were noted, as shown with yadianzolide C (5) and glaucarubolone (24), and analogues 4 (brusatol series) and 32 (glaucarubolone series).
(§2) HL-60 (human promyelocytic) cells were tested using a 4-day incubation protocol. In brief, cells in log phase (approximately 10^6 cells/mL) were diluted to […] and preincubated overnight (18 h) in 24-well plates to allow cell-growth recovery. Then, samples dissolved in DMSO were added, keeping the final DMSO concentration at 0.1% (v/v). Control cultures were treated with the same concentration of DMSO. After 4 days of incubation, the cells were analyzed to determine the percentage of cells undergoing maturation as determined by NBT reduction. Concomitantly, the effect on viability and proliferation of HL-60 cells was determined. In each experiment, 1α, 25-dihydroxyvitamin D3 (EC50=0.01 μM) and brusatol (EC50=0.07 μM) were used as reference controls. EC50 and IC50 values were calculated using 5-7 test concentrations (in duplicate), and consistent results were obtained, indicating the data reported for the related quassinoids are reliable.
(1) Nitroblue Tetrazolium (NBT) Reduction. Evaluation of NBT reduction was used to assess the ability of sample-treated HL-60 cells to produce superoxide when challenged with 12-O-tetradecanoylphorbol 13-acetate (TPA). A 1:1 v/v) mixture of a cell suspension (10^6 cells) and TPA/NBT solution (2 mg/mL NBT and 1 μg/mL TPA in phosphate buffered solution) was incubated for 1 h at 37° C. Positive cells reduce NBT yielding intracellular black-blue formazan deposits, which were quantified by microscopic examination of >200 cells. Results were expressed as a percentage of positive cells.

Series [2] shares this test system. The experiment in a line: HL-60 cytotoxicity of quassinoids, trypan blue exclusion. Conditions: HL-60; 4-day incubation; trypan blue exclusion. It counts as cell-based. As for the experimental part:
as §1, §2
(§3) (2) Cytotoxicity. Since loss of membrane integrity is an early feature of necrotic cells and a late feature of apoptotic cells, trypan blue, a […] blue dye, was used to stain cells with compromised plasma membranes, while leaving intact cells unstained. Cells […] of trypan blue (0.2% w/v in PBS), incubated for at least 5 min at room temperature, and counted using a hematocytometer. Viability percentages were calculated with duplicate samples.

Series [3] shares this test system. Put plainly: HL-60 cell proliferation assay of quassinoids, [3H]thymidine incorporation. It counts as cell-based. The note with it: for IC50: 4-day incubation, [3H]thymidine incorporation, read-out: inhibition of proliferation (IC50). As for the experimental part:
as §1, §2
(3) Cell Proliferation Assay. […] Cells were then collected on glass fiber filters (90×120 mm; Wallac, Turku, Finland) using a TOMTEC Harvester 96®.

Series [4] has as its system DMBA-induced preneoplastic lesion formation in mouse mammary organ culture. Put plainly: Inhibition of DMBA-induced preneoplastic lesion formation in mouse mammary organ culture (MMOC). Conditions: for % inhibition of DMBA-induced preneoplastic lesion formation: quassinoid (2 μM), in comparison with a DMBA control. It counts as cell-based. How it is done: The identification of potential inhibitors of DMBA-induced preneoplastic lesion formation in mammary organ culture has been described previously. Briefly, four-week old BALB/c female mice (Charles River) were pretreated for nine days with 1 μg estradiol and 1 mg progesterone. The thoracic pair of mammary glands was dissected on silk and incubated with growth-promoting hormones in the presence of test compounds (2 μM) for 10 days. DMBA ([…]) was included in the medium (containing […]) for 24 hours on the third day of culture to induce preneoplastic mammary lesions. Following 10 days of growth promoting phase, all hormones except insulin were withdrawn and the glands were allowed to regress to lobuloalveolar structures during a 14-day incubation period. Glands then were fixed in 10% buffered formalin and stained with alum carmine. Incidence of lesion formation (percentage of glands per group with mammary lesions) was recorded, and percent inhibition was calculated by comparison with the DMBA control group that was not treated with test sample. Active samples induce 60% inhibition, based on historical controls.

The nature of series [5]: HL-60 cytotoxicity of quassinoids, trypan blue exclusion. Conditions: human, HL-60 cells; HL-60; 4-day incubation; trypan blue exclusion; read-out: cytotoxicity (IC50). It counts as cell-based, human. How it is done: as §1, §2, §3
Series [6] concerns human promyelocytic leukemia (HL-60) cells. The note with it: cited from earlier work.
The mark [7] stands for this setting: HL-60, 4-day incubation, NBT-reduction, read-out: induction of differentiation (EC50).
[8] abbreviates: Homo sapiens, HL-60, 96 h, read-out: induction of differentiation (EC50, μM).

As for `C[C@@]1(CO)[C@H](O)CC[C@@]2(C)[C@H]1CC[C@H]1C[C@@H]3C[C@@]12CC[C@]3(O)CO` [aphidicolin, reference compound], in series [1] (data not shown), the “maturation of HL-60 cells” value is “incapable of inducing maturation”.
As a reminder, the EC50 is the concentration needed to bring the measured effect to its halfway point. Turning to yadanziolide C [compound 5], the IC50 in series [2] is greater than 10000 nM; in series [3], 1500 ± 80 nM. In series [1] (setting [7]), the EC50 is 10 ± 1.5 µM.
`CC1=CC(=O)[C@@H](O)[C@]2(C)[C@H]3[C@@]4(O)OC[C@@]35[C@@H](C[C@@H]12)OC(=O)C[C@H]5[C@@H](C)[C@H]4O` [compound 26, chaparrinone]: the IC50 was 5000 ± 300 nM in series [2] and 1200 ± 200 nM in series [3]. The EC50 in series [1] (setting [7]) is roughly 2.4 µM. For the same molecule, the “% inhibition of DMBA-induced preneoplastic lesion formation” value (shortened to “% inhibition”) in series [4] is recorded as 25%.
Regarding `CC[C@@H](C)C(=O)O[C@H]1C(=O)O[C@@H]2C[C@H]3C(C)=CC(=O)[C@@H](O)[C@]3(C)[C@H]3[C@@H](O)[C@H](O)[C@@]4(C)OC[C@]32[C@@H]14` [compound 4, simalikalactone D], the IC50 at 4 days in series [5] amounted to 200 ± 40 nM. Moreover, the EC50 in series [1] (setting [8]) was greater than 0.2 µM. The IC50 in series [3] (Homo sapiens) is greater than 200 nM.
Regarding `CC[C@@](C)(OC(C)=O)C(=O)O[C@H]1C(=O)O[C@@H]2C[C@H]3C(C)=CC(=O)[C@@H](O)[C@]3(C)[C@H]3[C@@H](O)[C@H](O)[C@@]4(C)OC[C@]32[C@@H]14` [compound 3, quassimarin], the IC50 at 4 days in series [5] stood at 130 ± 8 nM. Moreover, the EC50 in series [1] (setting [8]) worked out at 0.09 ± 0.001 µM. For the same molecule, the IC50 in series [3] (Homo sapiens) amounted to 60 ± 5 nM. Moreover, the selectivity index in series [3] (ratio of cytotoxic IC50 over antiproliferative IC50) is 2.2 ± 0.5.
bruceoside B: the “activity in the HL-60 test system” value in series [6] is “inactive”.
In the case of `CC[C@](C)(O)C(=O)O[C@H]1C(=O)O[C@@H]2C[C@H]3C(C)=CC(=O)[C@@H](O)[C@]3(C)[C@H]3[C@@]4(O)OC[C@]32[C@@H]1[C@@H](C)[C@H]4O` [compound 25, glaucarubinone], the IC50 in series [2] was 1000 ± 100 nM; in series [3] it was 500 ± 90 nM. Besides, the EC50 in series [1] (setting [7]) is 1.8 ± 0.09 µM.
Turning to `C=C1/C(=C\C=C2/CCC[C@]3(C)[C@@H]([C@H](C)CCCC(C)(C)O)CC[C@@H]23)C[C@@H](O)C[C@@H]1O` [1α, 25-dihydroxyvitamin D3, reference compound], the EC50 in series [1] (setting [7]) was found to be 0.01 µM.
Consider `CC[C@@](O)(CC(=O)O[C@@H]1C(=O)O[C@@H]2C[C@@H]3C(C)=CC(=O)[C@H](O)[C@]3(C)[C@H]3[C@]4(O)OC[C@]32[C@@H]1[C@@H](C)[C@H]4O)C(C)C` [compound 10, Peninsularinone], for which the figures for the IC50 in series [2] and in series [3] were 13 ± 1 nM and 9 ± 1 nM, respectively. In addition, the EC50 in series [1] (setting [7]) is 0.019 ± 0.0004 µM. Moreover, the “activity in the MMOC model” value in series [4] (at concentrations as high as 2 mM) is “inactive”. Further, in series [4], the “% inhibition” value was 44%.
With `COc1cc([C@H]2Oc3c(OC)cc4ccc(=O)oc4c3O[C@@H]2CO)ccc1O` [cleomiscosin A], in series [6], the “activity in the HL-60 test system” value is “inactive”.
`CC1=CC(=O)[C@@H](O)[C@]2(C)[C@H]3[C@]4(O)OC[C@]35[C@H]([C@@H](C)[C@H]4O)[C@@H](O)C(=O)O[C@@H]5C[C@@H]12` [compound 24, glaucarubolone]: the IC50 in series [2] stood at 1300 ± 200 nM; in series [3], 400 ± 30 nM. Also, the EC50 in series [1] (setting [7]) is roughly 1.3 µM.
As for samaderin B [compound 48], the IC50 is greater than 2000 nM in series [2] and 400 ± 50 nM in series [3]. Besides, the EC50 in series [1] (setting [7]) was 1 ± 0.02 µM. Also, the “% inhibition” value in series [4] came out at 0%.

(Values after US20020193425A1, “Cancer chemopreventative compounds and compositions and methods of treating cancers” (priority 2001, published 2002).)
